From ChEMBL document CHEMBL1141416, “Discovery of a potent and selective prostaglandin D2 receptor antagonist, [(3R)-4-(4-chloro-benzyl)-7-fluoro-5-(methylsulfonyl)-1,2,3,4-tetrahydrocyclopenta[b]indol-3-yl]-acetic acid (MK-0524)” (J Med Chem, 2007)
pIC50, pKi: −log10 of the molar value.

Assays:
Liver microsomes [1] = experiment: Protein binding in rat liver microsomes in presence of NADPH after 1 hr at 10 uM; format: ADME, Microsome
Liver microsomes [2] = experiment: Covalent protein binding in human liver microsomes in presence of NADPH after 1 hr at 10 uM; format: ADME, Microsome
Hepatocyte [3] = experiment: Covalent protein binding in rat hepatocyte after 2 hrs at 10 uM; format: ADME, cell-based; details: hepatocytes
Hepatocyte [4] = experiment: Protein binding in human hepatocyte after 2 hrs at 10 uM; format: ADME, cell-based; details: hepatocytes
[5] = Bioavailability in Sprague-Dawley rat at 10 mg/kg, po and 5 mg/kg, iv; format: ADME, organism-based; details: in vivo
[6] = Plasma clearance in Sprague-Dawley rat at 10 mg/kg, po and 5 mg/kg, iv; format: ADME, organism-based; parameters: unit not given here
[7] = Volume of distribution in Sprague-Dawley rat at 10 mg/kg, po and 5 mg/kg, iv; format: ADME, organism-based; details: in vivo
[8] = Cmax in Sprague-Dawley rat at 10 mg/kg, po; format: ADME, organism-based; parameters: dose 10 mg/kg, route oral; details: in vivo
[9] = (§1) Cmax in Sprague-Dawley rat after 6 hrs at 10 mg/kg, po; format: ADME, organism-based; parameters: dose 10 mg/kg, route oral; details: Sprague-Dawley, in vivo
[10] = Plasma half life in Sprague-Dawley rat at 5 mg/kg, iv; format: ADME, organism-based; parameters: dose 5 mg/kg, route intravenous
[11] = Cmax in Sprague-Dawley rat biliary fluid by bile duct cannulation study at 5 mg/kg, iv; format: ADME, organism-based; parameters: dose 5 mg/kg, route intravenous
[12] = Tmax in Sprague-Dawley rat biliary fluid by bile duct cannulation study at 5 mg/kg, iv; format: ADME, organism-based; parameters: dose 5 mg/kg, route intravenous
[13] = molecular target: Prostaglandin E2 receptor EP4 subtype (Homo sapiens, UniProt P35408); experiment: Binding affinity to human EP4 receptor expressed in HEK293 cells; format: cell-based
Chain of Prostaglandin E2 receptor EP4 subtype (P35408 whole entry): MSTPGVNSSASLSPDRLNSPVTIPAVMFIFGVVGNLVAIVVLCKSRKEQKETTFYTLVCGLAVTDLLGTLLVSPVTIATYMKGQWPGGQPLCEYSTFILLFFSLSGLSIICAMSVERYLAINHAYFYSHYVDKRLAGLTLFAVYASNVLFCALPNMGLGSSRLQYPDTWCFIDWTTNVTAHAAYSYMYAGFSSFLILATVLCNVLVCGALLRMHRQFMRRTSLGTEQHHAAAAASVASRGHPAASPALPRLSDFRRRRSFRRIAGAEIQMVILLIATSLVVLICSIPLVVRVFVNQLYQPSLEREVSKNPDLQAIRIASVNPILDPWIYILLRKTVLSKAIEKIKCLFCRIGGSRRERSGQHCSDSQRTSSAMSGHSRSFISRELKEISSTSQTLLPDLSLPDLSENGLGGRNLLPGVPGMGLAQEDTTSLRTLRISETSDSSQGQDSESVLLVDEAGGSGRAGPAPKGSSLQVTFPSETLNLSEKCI

[14] = Metabolic stability in rat hepatocytes after 2 hrs at 50 uM; format: ADME, cell-based, Hepatocyte; details: read-out: Stability
[15] = Activity at human TP receptor in platelet rich plasma assessed as inhibition […]-induced platelet aggregation
Rattus norvegicus [16] = experiment: as §1; format: ADME, organism-based; parameters: dose 10 mg/kg, route oral; details: in vivo, 6 h
[17] = Cmax in Sprague-Dawley rat at 100 mg/kg, po; format: ADME, organism-based; parameters: dose 100 mg/kg, route oral; details: in vivo
[18] = Cmax in Sprague-Dawley rat after 6 hrs at 100 mg/kg, po; format: ADME, organism-based; parameters: dose 100 mg/kg, route oral; details: in vivo
Rattus norvegicus [19] = experiment: AUC (0-6hrs) in Sprague-Dawley rat at 10 mg/kg, po; format: ADME, organism-based, Plasma; parameters: time < 6 hr, dose 10 mg/kg, route oral; details: in vivo
Rattus norvegicus [20] = experiment: AUC (0-6hrs) in Sprague-Dawley rat at 100 mg/kg, po; format: ADME, organism-based, Plasma; parameters: time < 6 hr, dose 100 mg/kg, route oral; details: in vivo
[21] = molecular target: T1, Prostaglandin D2 receptor (Homo sapiens, UniProt Q13258); experiment: Binding affinity to human DP receptor expressed in HEK293 cells; format: cell-based
T1 sequence (Q13258 whole entry): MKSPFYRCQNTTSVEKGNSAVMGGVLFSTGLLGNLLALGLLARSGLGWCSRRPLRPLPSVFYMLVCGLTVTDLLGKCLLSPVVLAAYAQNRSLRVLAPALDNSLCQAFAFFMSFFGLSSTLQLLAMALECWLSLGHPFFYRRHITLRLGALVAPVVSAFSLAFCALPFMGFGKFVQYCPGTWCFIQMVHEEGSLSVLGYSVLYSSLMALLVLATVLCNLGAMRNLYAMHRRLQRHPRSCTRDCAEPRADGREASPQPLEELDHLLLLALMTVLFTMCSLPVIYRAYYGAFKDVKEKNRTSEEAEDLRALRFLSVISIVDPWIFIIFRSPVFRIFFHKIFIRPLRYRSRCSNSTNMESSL

Thromboxane A2 receptor = molecular target: T2, Thromboxane A2 receptor (Homo sapiens, UniProt P21731); experiment: Binding affinity to human TP receptor expressed in HEK293 cells; format: cell-based
T2 sequence (P21731 whole entry): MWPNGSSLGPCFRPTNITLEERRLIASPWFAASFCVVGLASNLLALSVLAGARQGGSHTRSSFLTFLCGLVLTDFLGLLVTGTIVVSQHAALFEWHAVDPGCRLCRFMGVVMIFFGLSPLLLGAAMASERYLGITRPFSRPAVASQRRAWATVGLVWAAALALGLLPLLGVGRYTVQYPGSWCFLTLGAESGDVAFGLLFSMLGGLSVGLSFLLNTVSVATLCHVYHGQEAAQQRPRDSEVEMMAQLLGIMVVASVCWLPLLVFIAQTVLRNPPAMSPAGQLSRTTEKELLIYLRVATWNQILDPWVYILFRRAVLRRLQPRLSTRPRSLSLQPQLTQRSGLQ

[22] = molecular target: T3, Prostaglandin E2 receptor EP1 subtype (Homo sapiens, UniProt P34995); experiment: Binding affinity to human EP1 receptor expressed in HEK293 cells; format: cell-based
T3 sequence (P34995 whole entry): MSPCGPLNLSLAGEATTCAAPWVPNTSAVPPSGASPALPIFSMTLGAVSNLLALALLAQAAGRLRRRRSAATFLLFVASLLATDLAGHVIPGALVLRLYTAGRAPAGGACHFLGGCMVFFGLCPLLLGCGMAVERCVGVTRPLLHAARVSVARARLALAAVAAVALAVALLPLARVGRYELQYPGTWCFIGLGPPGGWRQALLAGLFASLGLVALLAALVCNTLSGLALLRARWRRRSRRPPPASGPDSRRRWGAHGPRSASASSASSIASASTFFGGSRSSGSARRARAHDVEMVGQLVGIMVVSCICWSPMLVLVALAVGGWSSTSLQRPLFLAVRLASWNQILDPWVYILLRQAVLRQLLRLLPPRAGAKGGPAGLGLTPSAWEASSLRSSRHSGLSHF

[23] = molecular target: Prostaglandin E2 receptor EP2 subtype (Homo sapiens, UniProt P43116); experiment: Binding affinity to human EP2 receptor expressed in HEK293 cells; format: cell-based
Chain of Prostaglandin E2 receptor EP2 subtype (P43116 whole entry): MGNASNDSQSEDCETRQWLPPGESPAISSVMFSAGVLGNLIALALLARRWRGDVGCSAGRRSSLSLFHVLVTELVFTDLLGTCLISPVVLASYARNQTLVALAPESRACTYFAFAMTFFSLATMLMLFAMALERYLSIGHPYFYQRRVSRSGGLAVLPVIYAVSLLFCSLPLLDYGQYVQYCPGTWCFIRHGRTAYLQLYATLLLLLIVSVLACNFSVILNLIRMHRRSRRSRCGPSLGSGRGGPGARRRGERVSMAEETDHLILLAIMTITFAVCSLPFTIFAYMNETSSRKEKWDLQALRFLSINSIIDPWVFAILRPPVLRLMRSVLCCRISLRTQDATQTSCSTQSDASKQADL

[24] = molecular target: T4, Prostaglandin E2 receptor EP3 subtype (Homo sapiens, UniProt P43115); experiment: Binding affinity to human EP3 receptor expressed in HEK293 cells; format: cell-based
T4 sequence (P43115 whole entry): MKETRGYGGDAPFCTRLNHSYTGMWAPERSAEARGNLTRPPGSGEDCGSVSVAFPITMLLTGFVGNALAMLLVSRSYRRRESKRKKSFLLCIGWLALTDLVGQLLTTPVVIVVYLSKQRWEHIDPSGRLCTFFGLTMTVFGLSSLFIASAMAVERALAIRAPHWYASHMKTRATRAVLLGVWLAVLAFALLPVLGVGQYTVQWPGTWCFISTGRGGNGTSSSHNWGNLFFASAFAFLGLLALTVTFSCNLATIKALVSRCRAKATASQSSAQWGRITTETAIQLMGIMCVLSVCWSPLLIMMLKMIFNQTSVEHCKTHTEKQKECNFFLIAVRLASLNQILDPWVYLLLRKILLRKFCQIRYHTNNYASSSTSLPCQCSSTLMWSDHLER

[25] = molecular target: Prostaglandin F2-alpha receptor (Homo sapiens, UniProt P43088); experiment: Binding affinity to human FP receptor expressed in HEK293 cells; format: cell-based
Chain of Prostaglandin F2-alpha receptor (P43088 whole entry): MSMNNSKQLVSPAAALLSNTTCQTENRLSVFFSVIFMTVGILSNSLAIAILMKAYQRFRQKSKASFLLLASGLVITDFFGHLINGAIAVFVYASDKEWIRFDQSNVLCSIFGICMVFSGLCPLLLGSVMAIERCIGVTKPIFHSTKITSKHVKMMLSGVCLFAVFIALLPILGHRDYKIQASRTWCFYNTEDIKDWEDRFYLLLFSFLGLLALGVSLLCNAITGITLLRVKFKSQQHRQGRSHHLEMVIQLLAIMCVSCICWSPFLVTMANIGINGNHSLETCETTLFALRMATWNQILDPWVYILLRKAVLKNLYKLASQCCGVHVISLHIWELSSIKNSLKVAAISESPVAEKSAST

Prostacyclin receptor = Prostacyclin receptor (Homo sapiens, UniProt P43119); experiment: Binding affinity to human IP receptor expressed in HEK293 cells; format: cell-based
Chain of Prostacyclin receptor (P43119 whole entry): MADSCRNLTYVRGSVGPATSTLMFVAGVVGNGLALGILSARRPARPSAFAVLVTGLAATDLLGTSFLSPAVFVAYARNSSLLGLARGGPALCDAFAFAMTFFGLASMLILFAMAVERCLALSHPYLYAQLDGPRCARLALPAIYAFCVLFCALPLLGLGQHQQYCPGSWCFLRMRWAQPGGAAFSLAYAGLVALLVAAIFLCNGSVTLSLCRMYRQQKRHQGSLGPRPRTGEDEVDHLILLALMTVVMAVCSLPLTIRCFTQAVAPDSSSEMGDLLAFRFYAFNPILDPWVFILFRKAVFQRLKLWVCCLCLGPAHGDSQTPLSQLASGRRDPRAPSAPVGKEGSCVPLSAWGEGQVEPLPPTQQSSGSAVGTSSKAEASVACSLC

[26] = molecular target: T1, Prostaglandin D2 receptor; experiment: Activity at human DP receptor in washed platelets assessed as inhibition of PGD2-induced cAMP accumulation; format: functional
[27] = molecular target: T1, Prostaglandin D2 receptor; experiment: Activity at human DP receptor in platelet rich plasma assessed as inhibition of PGD2-induced cAMP accumulation; format: functional
[28] = Plasma concentration in sheep allergic rhinitis model after 30 mins at 0.03 mg/kg, iv
[29] = Plasma concentration in sheep allergic rhinitis model after 30 mins at 0.1 mg/kg, iv

[3H]C([3H])([3H])S(=O)(=O)c1cc(C(C)=O)c2c(c1)c1c(n2Cc2ccc(Cl)cc2)[C@@H](CC(=O)O)CC1
Activity (Liver microsomes [1]): 23 pmol/mg/h | Activity (Liver microsomes [2]): 18 pmol/mg/h | Activity (Hepatocyte [3]): 8 pmol/mg/h | Activity (Hepatocyte [4]): 5 pmol/mg/h

CS(=O)(=O)c1cc(F)cc2c3c(n(Cc4ccc(Cl)cc4)c12)[C@@H](CC(=O)[O-])CC3.[Na+]
bioavailability [5]: 79% | clearance [6]: 2.4 | Vdss [7]: 0.5 Not_given | Cmax [8]: 39 µM | Cmax [9]: 6.3 µM | half-life [10]: 7 h | Cmax [11]: 103 µM | Tmax [12]: 0.5 h

CC(O)c1cc(S(C)(=O)=O)cc2c3c(n(Cc4ccc(Cl)cc4)c12)[C@@H](CC(=O)O)CC3 (stereo not given in full)
pKi [13]: < 4.70 | remaining at 2 h, 50 µM [14]: 100% | pIC50 [15]: 4.37

[3H]C([3H])([3H])S(=O)(=O)c1cc(C(C)O)c2c(c1)c1c(n2Cc2ccc(Cl)cc2)[C@@H](CC(=O)O)CC1 (stereo not given in full)
Activity (Liver microsomes [1]): 13 pmol/mg/h | Activity (Liver microsomes [2]): 9 pmol/mg/h | Activity (Hepatocyte [3]): 9 pmol/mg/h | Activity (Hepatocyte [4]): < 5 pmol/mg/h

O=[14C](O)C[C@H]1CCc2c1n(Cc1ccc(Cl)cc1)c1c(Br)cc(F)cc21
Activity (Liver microsomes [1]): 460 pmol/mg/h | Activity (Liver microsomes [2]): 33 pmol/mg/h | Activity (Hepatocyte [3]): 74 pmol/mg/h | Activity (Hepatocyte [4]): 33 pmol/mg/h

CC(O)c1cc(S(C)(=O)=O)cc2c3c(n(Cc4ccc(Cl)cc4)c12)[C@@H](CC(=O)[O-])CC3.[Na+] (stereo not given in full)
bioavailability [5]: 8% | clearance [6]: 50 | Vdss [7]: 0.8 Not_given | Cmax [8]: 0.29 µM | Cmax [9]: 0.03 µM | half-life [10]: < 1 h | Cmax [11]: 3900 µM | Tmax [12]: 0 h

CC(=O)c1cc(S(C)(=O)=O)cc2c3c(n(Cc4ccc(Cl)cc4)c12)[C@@H](CC(=O)[O-])CC3.[Na+]
bioavailability [5]: 128% | clearance [6]: 14 | Vdss [7]: 0.7 Not_given | Cmax [8]: 21 µM | Cmax (Rattus norvegicus [16]): 0.6 µM | half-life [10]: 1.4 h | Cmax [11]: 1100 µM | Tmax [12]: 0 h | Cmax [17]: 31 µM | Cmax [18]: 7 µM | AUC (Rattus norvegicus [19]): 30 µM·h | AUC (Rattus norvegicus [20]): 120 µM·h

CC(=O)c1cc(S(C)(=O)=O)cc2c3c(n(Cc4ccc(Cl)cc4)c12)[C@@H](CC(=O)O)CC3
remaining at 2 h, 50 µM [14]: 93% | pIC50 [15]: 5.08

CC(=O)c1cc(F)cc2c3c(n(Cc4ccc(Cl)cc4)c12)[C@@H](C[14C](=O)O)CC3
Activity (Liver microsomes [1]): 290 pmol/mg/h | Activity (Liver microsomes [2]): 46 pmol/mg/h | Activity (Hepatocyte [3]): 45 pmol/mg/h | Activity (Hepatocyte [4]): 16 pmol/mg/h

O=C([O-])C[C@H]1CCc2c1n(Cc1ccc(Cl)cc1)c1c(Br)cc(F)cc21.[Na+]
bioavailability [5]: 41% | clearance [6]: 1.4 | Vdss [7]: 0.4 Not_given | Cmax [8]: 10 µM | Cmax [9]: 3.7 µM | half-life [10]: 12 h | Cmax [11]: 29 µM | Tmax [12]: 1 h

CC(=O)c1cc(F)cc2c3c(n(Cc4ccc(Cl)cc4)c12)[C@@H](CC(=O)[O-])CC3.[Na+]
bioavailability [5]: 52% | clearance [6]: 1.9 | Vdss [7]: 0.5 Not_given | Cmax [8]: 21 µM | Cmax [9]: 7.5 µM | half-life [10]: 4 h | Cmax [11]: 81 µM | Tmax [12]: 2.5 h

O=C(O)C[C@H]1CCc2c1n(Cc1ccc(Cl)cc1)c1c(Br)cc(F)cc21
Ki [21]: 0.0015 µM (antagonist) | Ki (Thromboxane A2 receptor): 0.00084 µM (antagonist) | pKi [22]: 5.36 | Ki [23]: 0.41 µM (antagonist) | Ki [24]: 0.47 µM (antagonist) | pKi [13]: 5.36 | pKi [25]: 4.85 | Ki (Prostacyclin receptor): 0.4 µM (antagonist) | IC50 [26]: 0.00026 µM (antagonist) | IC50 [27]: 0.023 µM (antagonist) | remaining at 2 h, 50 µM [14]: 42%

CS(=O)(=O)c1cc(F)cc2c3c(n(Cc4ccc(Cl)cc4)c12)[C@@H](CC(=O)O)CC3 [LAROPIPRANT]
remaining at 2 h, 50 µM [14]: 32% | concentration at 0.5 h [28]: 0.091 µM | concentration at 0.5 h [29]: 0.67 µM

CC(=O)c1cc(F)cc2c3c(n(Cc4ccc(Cl)cc4)c12)[C@@H](CC(=O)O)CC3
Ki [21]: 0.0011 µM (antagonist) | Ki (Thromboxane A2 receptor): 0.014 µM (antagonist) | pKi [22]: < 5.05 | Ki [23]: 0.31 µM (antagonist) | pKi [24]: 5.92 | pKi [13]: < 4.70 | pKi [25]: < 4.70 | pKi (Prostacyclin receptor): 4.85 | IC50 [26]: 0.00029 µM (antagonist) | IC50 [27]: 0.015 µM (antagonist) | remaining at 2 h, 50 µM [14]: 35%
